Data: ChEMBL document CHEMBL5620403, “Design, synthesis, activity and molecular dynamics studies of 1,3,4-thiadiazole derivatives as selective allosteric inhibitors of SHP2 for the treatment of cancer” (Eur J Med Chem, 2023)
Values belong to the compound of their own block, whether it stands above or below them.

Tests used:
[1] = target: T1, Tyrosine-protein phosphatase non-receptor type 11 (Homo sapiens, UniProt Q06124); test: Inhibition of full length wild type recombinant human IRS-1 peptide activated SHP2 (1 to 525 residues) using DIPMUP as substrate preincubated for 30 mins followed by substrate addition and measured after 30 mins by fluorescence based analysis
T1 sequence (Q06124 whole entry): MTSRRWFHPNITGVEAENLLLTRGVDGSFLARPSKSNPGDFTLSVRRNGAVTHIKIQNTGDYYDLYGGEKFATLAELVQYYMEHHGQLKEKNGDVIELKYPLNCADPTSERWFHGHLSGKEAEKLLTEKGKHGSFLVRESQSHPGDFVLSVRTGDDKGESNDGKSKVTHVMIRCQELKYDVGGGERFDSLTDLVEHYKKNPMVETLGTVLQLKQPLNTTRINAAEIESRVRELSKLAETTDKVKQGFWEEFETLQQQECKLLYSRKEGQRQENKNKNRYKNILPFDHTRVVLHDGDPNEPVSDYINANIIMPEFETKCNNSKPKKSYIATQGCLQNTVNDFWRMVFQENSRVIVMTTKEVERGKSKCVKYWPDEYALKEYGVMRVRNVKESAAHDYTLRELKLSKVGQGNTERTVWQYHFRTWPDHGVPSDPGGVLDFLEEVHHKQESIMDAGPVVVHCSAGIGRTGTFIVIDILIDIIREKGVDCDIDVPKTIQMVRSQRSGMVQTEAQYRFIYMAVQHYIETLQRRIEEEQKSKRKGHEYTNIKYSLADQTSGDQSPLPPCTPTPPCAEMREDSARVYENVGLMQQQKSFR

[2] = Inhibition of full length recombinant human SHP2 E76A mutant (1 to 525 residues) using DIPMUP as substrate preincubated for 30 mins followed by substrate addition and measured after 30 mins by fluorescence based analysis
[3] = target: Tyrosine-protein phosphatase non-receptor type 6 (Homo sapiens, UniProt P29350); test: Inhibition of full length recombinant human SHP1 (1 to 570 residues) using DIPMUP as substrate preincubated for 30 mins followed by substrate addition and measured after 30 mins by fluorescence based analysis
NCI-H358 = test: Antiproliferative activity against human NCI-H358 cells assessed as inhibition of cell growth measured after 72 hrs by CCK8 method; assay type: functional, cell-based; conditions: NCI-H358, 72 h
MV4-11 [4] = test: Antiproliferative activity against human MV4-11 cells assessed as inhibition of cell growth measured after 72 hrs by CCK8 method; assay type: functional, cell-based; conditions: MV4-11, 72 h
A549 = test: Antiproliferative activity against human A549 cells assessed as inhibition of cell growth measured after 72 hrs by CCK8 method; assay type: functional, cell-based; conditions: A549, 72 h
MDA-MB-468 = test: Antiproliferative activity against human MDA-MB-468 cells assessed as inhibition of cell growth measured after 72 hrs by CCK8 method; assay type: functional, cell-based; conditions: MDA-MB-468, 72 h
MV4-11 [5] = test: Induction of apoptosis in human MV4-11 cells assessed as viable cells at 1.25 uM measured after 4 hrs by Annexin V-FITC/7-AAD staining based flow cytometric analysis (reference value: 89.1%); assay type: functional
MV4-11 [6] = test: Induction of apoptosis in human MV4-11 cells assessed as viable cells at 2.5 uM measured after 4 hrs by Annexin V-FITC/7-AAD staining based flow cytometric analysis (reference value: 89.1%); assay type: functional
MV4-11 [7] = test: Induction of apoptosis in human MV4-11 cells assessed as viable cells at 5 uM measured after 4 hrs by Annexin V-FITC/7-AAD staining based flow cytometric analysis (reference value: 89.1%); assay type: functional
MV4-11 [8] = test: Induction of apoptosis in human MV4-11 cells assessed as early apoptotic cells at 1.25 uM measured after 4 hrs by Annexin V-FITC/7-AAD staining based flow cytometric analysis (reference value: 5.97%); assay type: functional
MV4-11 [9] = test: Induction of apoptosis in human MV4-11 cells assessed as early apoptotic cells at 2.5 uM measured after 4 hrs by Annexin V-FITC/7-AAD staining based flow cytometric analysis (reference value: 5.97%); assay type: functional
MV4-11 [10] = test: Induction of apoptosis in human MV4-11 cells assessed as early apoptotic cells at 5 uM measured after 4 hrs by Annexin V-FITC/7-AAD staining based flow cytometric analysis (reference value: 5.97%); assay type: functional
MV4-11 [11] = test: Induction of apoptosis in human MV4-11 cells assessed as late apoptotic cells at 1.25 uM measured after 4 hrs by Annexin V-FITC/7-AAD staining based flow cytometric analysis (reference value: 4.03%); assay type: functional
MV4-11 [12] = test: Induction of apoptosis in human MV4-11 cells assessed as late apoptotic cells at 2.5 uM measured after 4 hrs by Annexin V-FITC/7-AAD staining based flow cytometric analysis (reference value: 4.03%); assay type: functional
MV4-11 [13] = test: Induction of apoptosis in human MV4-11 cells assessed as late apoptotic cells at 5 uM measured after 4 hrs by Annexin V-FITC/7-AAD staining based flow cytometric analysis (reference value: 4.03%); assay type: functional
MV4-11 [14] = test: Induction of apoptosis in human MV4-11 cells assessed as necrotic cells at 1.25 uM measured after 4 hrs by Annexin V-FITC/7-AAD staining based flow cytometric analysis (reference value: 0.86%); assay type: functional
MV4-11 [15] = test: Induction of apoptosis in human MV4-11 cells assessed as necrotic cells at 2.5 uM measured after 4 hrs by Annexin V-FITC/7-AAD staining based flow cytometric analysis (reference value: 0.86%); assay type: functional
MV4-11 [16] = test: Induction of apoptosis in human MV4-11 cells assessed as necrotic cells at 5 uM measured after 4 hrs by Annexin V-FITC/7-AAD staining based flow cytometric analysis (reference value: 0.86%); assay type: functional
MV4-11 [17] = test: Induction of apoptosis in human MV4-11 cells assessed as viable cells at 5 uM measured after 1 hrs by Annexin V-FITC/7-AAD staining based flow cytometric analysis (reference value: 90.1%); assay type: functional
MV4-11 [18] = test: Induction of apoptosis in human MV4-11 cells assessed as viable cells at 5 uM measured after 2 hrs by Annexin V-FITC/7-AAD staining based flow cytometric analysis (reference value: 90.1%); assay type: functional
MV4-11 [19] = test: Induction of apoptosis in human MV4-11 cells assessed as viable cells at 5 uM measured after 4 hrs by Annexin V-FITC/7-AAD staining based flow cytometric analysis (reference value: 90.1%); assay type: functional
MV4-11 [20] = test: Induction of apoptosis in human MV4-11 cells assessed as early apoptotic cells at 5 uM measured after 1 hrs by Annexin V-FITC/7-AAD staining based flow cytometric analysis (reference value: 4.28%); assay type: functional
MV4-11 [21] = test: Induction of apoptosis in human MV4-11 cells assessed as early apoptotic cells at 5 uM measured after 2 hrs by Annexin V-FITC/7-AAD staining based flow cytometric analysis (reference value: 4.28%); assay type: functional
MV4-11 [22] = test: Induction of apoptosis in human MV4-11 cells assessed as early apoptotic cells at 5 uM measured after 4 hrs by Annexin V-FITC/7-AAD staining based flow cytometric analysis (reference value: 4.28%); assay type: functional
MV4-11 [23] = test: Induction of apoptosis in human MV4-11 cells assessed as late apoptotic cells at 5 uM measured after 1 hrs by Annexin V-FITC/7-AAD staining based flow cytometric analysis (reference value: 4.21%); assay type: functional
MV4-11 [24] = test: Induction of apoptosis in human MV4-11 cells assessed as late apoptotic cells at 5 uM measured after 2 hrs by Annexin V-FITC/7-AAD staining based flow cytometric analysis (reference value: 4.21%); assay type: functional
MV4-11 [25] = test: Induction of apoptosis in human MV4-11 cells assessed as late apoptotic cells at 5 uM measured after 4 hrs by Annexin V-FITC/7-AAD staining based flow cytometric analysis (Rvb =4.21%); assay type: functional
MV4-11 [26] = test: Induction of apoptosis in human MV4-11 cells assessed as necrotic cells at 5 uM measured after 1 hrs by Annexin V-FITC/7-AAD staining based flow cytometric analysis (reference value: 0.92%); assay type: functional
MV4-11 [27] = test: Induction of apoptosis in human MV4-11 cells assessed as necrotic cells at 5 uM measured after 2 hrs by Annexin V-FITC/7-AAD staining based flow cytometric analysis (reference value: 0.92%); assay type: functional
MV4-11 [28] = test: Induction of apoptosis in human MV4-11 cells assessed as necrotic cells at 5 uM measured after 4 hrs by Annexin V-FITC/7-AAD staining based flow cytometric analysis (reference value: 0.92%); assay type: functional
[29] = target: T1, Tyrosine-protein phosphatase non-receptor type 11; test: Inhibition of recombinant human SHP2 PTPase activity (219 to 525 residues) using DIPMUP as substrate preincubated for 30 mins followed by substrate addition and measured after 30 mins by fluorescence based analysis
[30] = target: T1, Tyrosine-protein phosphatase non-receptor type 11; test: Inhibition of full length wild type recombinant human SHP2 (1 to 525 residues) using DIPMUP as substrate preincubated for 30 mins followed by substrate addition and measured after 30 mins by fluorescence based analysis
BEAS-2B = test: Antiproliferative against human BEAS-2B cells assessed as inhibition of cell growth measured after 72 hrs by CCK8 method; assay type: toxicity, cell-based

Chain of Tyrosine-protein phosphatase non-receptor type 6 (P29350 whole entry, the tested form may be a part): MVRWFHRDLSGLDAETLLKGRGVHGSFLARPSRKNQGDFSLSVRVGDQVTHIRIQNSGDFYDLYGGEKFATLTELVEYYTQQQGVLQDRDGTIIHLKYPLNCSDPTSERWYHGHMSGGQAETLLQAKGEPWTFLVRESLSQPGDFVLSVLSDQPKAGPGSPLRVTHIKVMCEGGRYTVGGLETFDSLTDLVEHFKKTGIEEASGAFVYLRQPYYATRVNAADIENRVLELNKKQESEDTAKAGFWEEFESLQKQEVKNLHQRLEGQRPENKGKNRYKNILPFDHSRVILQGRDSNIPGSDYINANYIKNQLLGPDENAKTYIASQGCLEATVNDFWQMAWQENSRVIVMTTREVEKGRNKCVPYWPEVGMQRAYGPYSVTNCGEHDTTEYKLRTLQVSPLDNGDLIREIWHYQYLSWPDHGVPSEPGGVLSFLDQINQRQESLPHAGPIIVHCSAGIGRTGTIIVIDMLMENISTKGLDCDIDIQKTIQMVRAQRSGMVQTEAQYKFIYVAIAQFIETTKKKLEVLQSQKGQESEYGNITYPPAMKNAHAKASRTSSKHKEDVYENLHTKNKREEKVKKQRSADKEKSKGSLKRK

SMILES: CC1(N)CCN(c2nnc(-c3cccc(Cl)c3Cl)s2)CC1
- IC50 [1]: 5.89 µM

SMILES: NC1CCN(c2nnc(Sc3cccc(Cl)c3Cl)s2)CC1
- IC50 [1]: 5.53 µM

SMILES: COc1ccc2cc(-c3nnc(N4CCC(C)(N)CC4)s3)ccc2c1
- IC50 [1]: 4.95 µM

SMILES: CC1(N)CCN(c2cnc(-c3cccc(Cl)c3Cl)c(N)n2)CC1
- IC50 [2]: 1.43 µM
- IC50 [3]: > 50 µM
- IC50 (NCI-H358): > 50 µM
- IC50 (MV4-11 [4]): 2.78 µM
- IC50 (A549): > 50 µM
- IC50 (MDA-MB-468): 31.8 µM
- Activity (MV4-11 [5]): 88.1%
- Activity (MV4-11 [6]): 88.2%
- Activity (MV4-11 [7]): 89.3%
- Activity (MV4-11 [8]): 4.94%
- Activity (MV4-11 [9]): 5.95%
- Activity (MV4-11 [10]): 5%
- Activity (MV4-11 [11]): 4.24%
- Activity (MV4-11 [12]): 5.06%
- Activity (MV4-11 [13]): 4.89%
- Activity (MV4-11 [14]): 0.66%
- Activity (MV4-11 [15]): 0.79%
- Activity (MV4-11 [16]): 0.85%
- Activity (MV4-11 [17]): 90.4%
- Activity (MV4-11 [18]): 90%
- Activity (MV4-11 [19]): 87.7%
- Activity (MV4-11 [20]): 4.27%
- Activity (MV4-11 [21]): 4.73%
- Activity (MV4-11 [22]): 6.98%
- Activity (MV4-11 [23]): 4.32%
- Activity (MV4-11 [24]): 4.35%
- Activity (MV4-11 [25]): 4.58%
- Activity (MV4-11 [26]): 1.05%
- Activity (MV4-11 [27]): 0.95%
- Activity (MV4-11 [28]): 0.77%

SMILES: CC1(N)CCN(c2nnc(-c3cccc4ccccc34)s2)CC1
- IC50 [1]: 4.35 µM
- IC50 [29]: > 50 µM
- IC50 [3]: > 50 µM
- IC50 (NCI-H358): 32.9 µM
- IC50 (MV4-11 [4]): 3.32 µM
- IC50 (A549): 19 µM
- IC50 (MDA-MB-468): 5.42 µM

SMILES: CC1(N)CCN(c2nnc(Sc3cccc(Cl)c3Cl)s2)CC1
- IC50 [1]: 0.97 µM
- IC50 [30]: 3.69 µM
- IC50 [29]: > 50 µM
- IC50 [3]: > 50 µM
- IC50 (NCI-H358): 8.64 µM
- IC50 (MV4-11 [4]): 2.74 µM
- IC50 (A549): 7.21 µM
- IC50 (MDA-MB-468): 2.87 µM
- Activity (BEAS-2B): Toxic

SMILES: CC1(N)CCN(c2nnc(Sc3ccc4ccccc4c3)s2)CC1
- IC50 [1]: 0.72 µM
- IC50 [30]: 1.86 µM
- IC50 [29]: > 50 µM
- IC50 [3]: > 50 µM
- IC50 (NCI-H358): 13.9 µM
- IC50 (MV4-11 [4]): 3.02 µM
- IC50 (A549): 13.8 µM
- IC50 (MDA-MB-468): 3.64 µM
- Activity (BEAS-2B): Toxic

SMILES: CC1(N)CCN(c2nnc(Sc3ccccc3F)s2)CC1
- IC50 [1]: 6.99 µM

SMILES: CC1(N)CCN(c2nnc(Sc3ccc(Cl)cc3Cl)s2)CC1
- IC50 [1]: 5.43 µM

Continued by falling IC50 [1], values first:

- IC50 [1]: 4.51 µM
SMILES: CC1(N)CCN(c2nnc(Sc3cccc4cccnc34)s2)CC1

- IC50 [1]: 4.42 µM
SMILES: CC1(N)CCN(c2nnc(Sc3ccc(Cl)c(Cl)c3)s2)CC1

- IC50 [1]: 4.35 µM
SMILES: CC1(N)CCN(c2nnc(-c3ccc4ccccc4c3)s2)CC1

- IC50 [1]: 3.82 µM
SMILES: NCC1CCN(c2nnc(Sc3cccc(Cl)c3Cl)s2)CC1

- IC50 [1]: 3.29 µM
SMILES: CC1(N)CCN(c2nnc(Sc3ccccc3Cl)s2)CC1

- IC50 [1]: 1.12 µM
SMILES: CC1(CN)CCN(c2nnc(Sc3cccc(Cl)c3Cl)s2)CC1
